Measurements published in patent US8012975B2, “Antitumoral analogs of ET-743” (Pharma Mar, S.A., priority 2000, dated 2011).

How the values were obtained:
A-549 = assay: Cytotoxic activity IC50, A-549; conditions: Homo sapiens, A549, read-out: CYTOTOXIC ACTIVITIY IC50 (μM) A-549, A-549
DU-145 = assay: Cytotoxic activity IC50, DU-145; conditions: Homo sapiens, DU-145, read-out: CYTOTOXIC ACTIVITIY IC50 (μM) DU-145, DU-145
MEL-28 = assay: Cytotoxic activity IC50, MEL-28; conditions: Homo sapiens, SK-MEL-28, read-out: CYTOTOXIC ACTIVITIY IC50 (μM) MEL-28, MEL-28
P-388 = assay: Cytotoxic activity IC50, P-388; conditions: Mus musculus, P388, read-out: CYTOTOXIC ACTIVITIY IC50 (μM) P-388
HT-29 = assay: Cytotoxic activity IC50, HT-29; conditions: Homo sapiens, HT-29, read-out: CYTOTOXIC ACTIVITIY IC50 (μM) HT-29, HT-29

| SMILES | IC50 (A-549) | IC50 (DU-145) | IC50 (MEL-28) | IC50 (P-388) | IC50 (HT-29) |
| --- | --- | --- | --- | --- | --- |
| C=CCOC(=O)Oc1c(C)c2c(c3c1CC1[C@H]4c5c(cc(C)c(OC)c5OCOC)C[C@@H]([C@H](C#N)N1[C@H]3CNC(=O)OCC(Cl)(Cl)Cl)N4C)OCO2 (some centres unmarked) | 0.1 µM | 0.1 µM | 0.1 µM | 0.1 µM | 0.1 µM |
| CCCC(=O)Oc1c(OC)c(C)cc2c1[C@@H]1C3Cc4c(OC(C)=O)c(C)c5c(c4[C@H](CNC(=O)C(C)NC(=O)CCc4ccccc4)N3[C@@H](C#N)[C@H](C2)N1C)OCO5 (some centres unmarked) | 0.012 µM | – | – | – | 0.012 µM |
| C=CCOC(=O)Oc1c(C)c2c(c3c1CC1[C@H]4c5c(cc(C)c(OC)c5OCOC)C[C@@H]([C@H](O)N1[C@H]3CNC(=O)CCc1ccccc1)N4C)OCO2 (some centres unmarked) | 0.1 µM | 0.1 µM | 0.1 µM | 0.1 µM | 0.1 µM |
| CCCC(=O)Oc1c(OC)c(C)cc2c1[C@@H]1C3Cc4c(OC(C)=O)c(C)c5c(c4[C@H](CNC(=O)[C@H](C)NC(=O)C(F)(F)F)N3[C@@H](C#N)[C@H](C2)N1C)OCO5 (some centres unmarked) | 0.13 µM | – | – | – | 0.13 µM |
| C=CCOC(=O)Oc1c(C)c2c(c3c1CC1[C@H]4c5c(cc(C)c(OC)c5O)C[C@@H]([C@H](C#N)N1[C@H]3CN)N4C)OCO2 (some centres unmarked) | 0.06 µM | 0.06 µM | 0.06 µM | 0.06 µM | 0.06 µM |
| COc1c(C)cc2c(c1OC(C)=O)[C@@H]1C3Cc4c(OC(=O)CCl)c(C)c5c(c4[C@H](CNC(=O)CCc4ccccc4)N3[C@@H](C#N)[C@H](C2)N1C)OCO5 (some centres unmarked) | 0.01 µM | 0.01 µM | 0.01 µM | 0.01 µM | 0.01 µM |
| COc1c(C)cc2c(c1O)[C@@H]1C3Cc4c(OC(C)=O)c(C)c5c(c4[C@H](CNC(=O)[C@@H](C)NC(=O)CC(C)C)N3[C@@H](O)[C@H](C2)N1C)OCO5 (some centres unmarked) | 0.001 µM | 0.001 µM | 0.001 µM | 0.001 µM | 0.001 µM |
| COCOc1c(OC)c(C)cc2c1[C@@H]1C3Cc4c(O)c(C)c5c(c4[C@H](COC(=O)/C=C/c4ccccc4)N3[C@@H](C#N)[C@H](C2)N1C)OCO5 (some centres unmarked) | 0.1 µM | 0.1 µM | 0.1 µM | 0.1 µM | 0.1 µM |
| COc1c(C)cc2c(c1O)[C@@H]1C3Cc4c(OC(C)=O)c(C)c5c(c4[C@H](CNC(=O)[C@H](C)NC(=O)Cc4ccccc4)N3[C@@H](O)[C@H](C2)N1C)OCO5 (some centres unmarked) [drawing 137] | 0.0007 µM | 0.0007 µM | 0.0007 µM | 0.0007 µM | 0.0007 µM |
| COc1c(C)cc2c(c1O)[C@@H]1C3Cc4c(OC(C)=O)c(C)c5c(c4[C@H](CNC(=O)Cc4ccccc4)N3[C@@H](O)[C@H](C2)N1C)OCO5 (some centres unmarked) [drawing 124] | 0.0007 µM | 0.0007 µM | 0.0007 µM | 0.0007 µM | 0.0007 µM |
| C=CCOc1c(C)c2c(c3c1CC1[C@H]4c5c(cc(C)c(OC)c5OCOC)C[C@@H]([C@H](C#N)N1[C@H]3COC(=O)/C=C/c1cccc(C(F)(F)F)c1)N4C)OCO2 (some centres unmarked) | > 1 µM | > 1 µM | > 1 µM | > 1 µM | > 1 µM |
| COc1c(C)cc2c(c1O)[C@@H]1C3Cc4c(O)c(C)c5c(c4[C@H](CNC(=O)/C=C/c4ccccc4)N3[C@@H](C#N)[C@H](C2)N1C)OCO5 (some centres unmarked) | 0.001 µM | 0.001 µM | 0.001 µM | 0.001 µM | 0.001 µM |
| COc1c(C)cc2c(c1O)[C@@H]1C3Cc4c(OC(C)=O)c(C)c5c(c4[C@H](COC(=O)/C=C/c4cccc(C(F)(F)F)c4)N3[C@@H](C#N)[C@H](C2)N1C)OCO5 (some centres unmarked) | 0.001 µM | 0.001 µM | 0.001 µM | 0.001 µM | 0.001 µM |
| COc1c(C)cc2c(c1O)[C@@H]1C3Cc4c(OC(=O)CCCl)c(C)c5c(c4[C@H](CNC(=O)CCc4ccccc4)N3[C@@H](C#N)[C@H](C2)N1C)OCO5 (some centres unmarked) | 0.01 µM | 0.01 µM | 0.01 µM | 0.01 µM | 0.01 µM |
| COc1c(C)cc2c(c1O)[C@@H]1C3Cc4c(OC(C)=O)c(C)c5c(c4[C@H](CNC(=O)[C@@H](NC(=O)OC(C)(C)C)C(C)C)N3[C@@H](C#N)[C@H](C2)N1C)OCO5 (some centres unmarked) | 0.007 µM | – | – | – | 0.007 µM |
| COCOc1c(OC)c(C)cc2c1[C@@H]1C3CC4C(=O)C(C)=C5OCOC5=C4[C@H](COC(=O)/C(CSCC4c5ccccc5-c5ccccc54)=N/OC)N3[C@@H](C#N)[C@H](C2)N1C (some centres unmarked) | > 1 µM | – | – | – | > 1 µM |
| COc1c(C)cc2c(c1O)[C@@H]1C3Cc4c(OC(C)=O)c(C)c5c(c4[C@H](CNC(=O)c4cccnc4Cl)N3[C@@H](C#N)[C@H](C2)N1C)OCO5 (some centres unmarked) | 0.00015 µM | – | – | – | – |
| COc1c(C)cc2c(c1O)[C@@H]1C3[C@@H]4SCC(=O)C(=O)OC[C@@H](c5c6c(c(C)c(OC(C)=O)c54)OCO6)N3[C@@H](C#N)[C@H](C2)N1C (some centres unmarked) | 0.1 µM | – | 0.1 µM | 0.1 µM | 0.1 µM |
| COc1c(C)cc2c(c1OC(C)=O)[C@@H]1C3Cc4c(OC(C)=O)c(C)c5c(c4[C@H](CNC(=O)[C@@H](C)NC(=O)C(F)(F)F)N3[C@@H](C#N)[C@H](C2)N1C)OCO5 (some centres unmarked) | 0.013 µM | – | – | – | 0.013 µM |
| COc1c(C)cc2c(c1O)[C@@H]1C3Cc4c(OC(C)=O)c(C)c5c(c4[C@H](CNC(=O)CC4CCCCC4)N3[C@@H](C#N)[C@H](C2)N1C)OCO5 (some centres unmarked) | 0.0015 µM | – | – | – | – |

| SMILES | IC50 (A-549) | IC50 (DU-145) | IC50 (MEL-28) | IC50 (P-388) | IC50 (HT-29) |
| --- | --- | --- | --- | --- | --- |
| C=CCOC1C(C)=C2OCOC2=C2C1CC1[C@H]3c4c(cc(C)c(OC)c4OCOC)C[C@@H]([C@H](C#N)N1[C@H]2COC(=O)/C(=C/SCC1c2ccccc2-c2ccccc21)OCOC)N3C (some centres unmarked) | 0.056 µM | – | – | – | 0.056 µM |
| CCCCCC(=O)Oc1c(OC)c(C)cc2c1[C@@H]1C3Cc4c(OC(C)=O)c(C)c5c(c4[C@H](CNC(=O)[C@H](C)NC(=O)C(F)(F)F)N3[C@@H](C#N)[C@H](C2)N1C)OCO5 (some centres unmarked) | 0.012 µM | – | – | – | 0.012 µM |
| CCCCCC(=O)Oc1c(OC)c(C)cc2c1[C@@H]1C3Cc4c(OC(C)=O)c(C)c5c(c4[C@H](CNC(=O)CCc4ccccc4)N3[C@@H](C#N)[C@H](C2)N1C)OCO5 (some centres unmarked) | 0.013 µM | – | – | – | 0.013 µM |
| COc1c(C)cc2c(c1O)[C@@H]1C3Cc4c(OC(C)=O)c(C)c5c(c4[C@H](CNC(=O)CCC4CCCCC4)N3[C@@H](C#N)[C@H](C2)N1C)OCO5 (some centres unmarked) | 0.0015 µM | – | – | – | – |
| COc1c(C)cc2c(c1O)[C@@H]1C3Cc4c(OC(C)=O)c(C)c5c(c4[C@H](CNC(=O)c4cccnc4Cl)N3[C@@H](O)[C@H](C2)N1C)OCO5 (some centres unmarked) | 0.00015 µM | – | – | – | – |
| COc1c(C)cc2c(c1O)[C@@H]1C3Cc4c(OC(C)=O)c(C)c5c(c4[C@H](CNC(=O)[C@H](Cc4c[nH]c6ccccc46)NC(=O)OC(C)(C)C)N3[C@@H](C#N)[C@H](C2)N1C)OCO5 (some centres unmarked) | 0.00012 µM | – | – | – | 0.00012 µM |
| COc1c(C)cc2c(c1O)[C@@H]1C3Cc4c(OC(C)=O)c(C)c5c(c4[C@H](CNC(=O)[C@H](Cc4c[nH]c6ccccc46)NC(=O)OC(C)(C)C)N3[C@@H](O)[C@H](C2)N1C)OCO5 (some centres unmarked) | 0.012 µM | – | – | – | – |
| CCCC(=O)Oc1c(OC)c(C)cc2c1[C@@H]1C3Cc4c(OC(C)=O)c(C)c5c(c4[C@H](CNC(=O)CCc4ccccc4)N3[C@@H](C#N)[C@H](C2)N1C)OCO5 (some centres unmarked) | 0.0014 µM | – | – | – | 0.0014 µM |
| COCOc1c(OC)c(C)cc2c1[C@@H]1C3Cc4c(OC(C)=O)c(C)c5c(c4[C@H](COC(=O)/C=C/c4ccccc4)N3[C@@H](C#N)[C@H](C2)N1C)OCO5 (some centres unmarked) | – | – | – | 0.01 µM | – |
| COC1=C(C)C(=O)C2=C(C1=O)[C@H](CNC(C)=O)N1C(C2)[C@H]2c3c(cc(C)c(OC)c3O)C[C@@H]([C@@H]1C#N)N2C (some centres unmarked) | 0.005 µM | – | 0.005 µM | 0.005 µM | 0.005 µM |
| COc1c(C)cc2c(c1OC(=O)CCC1CCCCC1)[C@@H]1C3Cc4c(OC(C)=O)c(C)c5c(c4[C@H](CNC(=O)CCC4CCCCC4)N3[C@@H](C#N)[C@H](C2)N1C)OCO5 (some centres unmarked) | 0.12 µM | – | – | – | – |
| CCCCCC(=O)Oc1c(OC)c(C)cc2c1[C@@H]1C3Cc4c(OC(C)=O)c(C)c5c(c4[C@H](CNC(=O)C(C)NC(=O)CCc4ccccc4)N3[C@@H](C#N)[C@H](C2)N1C)OCO5 (some centres unmarked) | 0.06 µM | – | – | – | 0.06 µM |
| COc1c(C)cc2c(c1O)[C@@H]1C3Cc4c(OC(C)=O)c(C)c5c(c4[C@H](CNC(=O)[C@@H]4CCCN4C(=O)OC(C)(C)C)N3[C@@H](C#N)[C@H](C2)N1C)OCO5 (some centres unmarked) | 0.014 µM | – | – | – | 0.014 µM |
| C=CCNC[C@H]1c2c(c(OC(C)=O)c(C)c3c2OCO3)CC2[C@H]3c4c(cc(C)c(OC)c4O)C[C@@H]([C@H](C#N)N21)N3C (some centres unmarked) | 0.0018 µM | – | – | – | 0.0018 µM |
| COc1c(C)cc2c(c1OC(C)=O)[C@@H]1C3Cc4c(OC(C)=O)c(C)c5c(c4[C@H](CNC(=O)[C@@H](C)N(C(C)=O)C(=O)C(F)(F)F)N3[C@@H](C#N)[C@H](C2)N1C)OCO5 (some centres unmarked) | 0.12 µM | – | – | – | 0.12 µM |
| C=CCOc1c(C)c2c(c3c1CC1[C@H]4c5c(cc(C)c(OC)c5O)C[C@@H]([C@H](C#N)N1[C@H]3COC(=O)/C=C/c1ccccc1)N4C)OCO2 (some centres unmarked) | 0.0015 µM | – | – | – | 0.0015 µM |
| COc1c(C)cc2c(c1OC(=O)CC1CCCCC1)[C@@H]1C3Cc4c(OC(C)=O)c(C)c5c(c4[C@H](CNC(=O)CC4CCCCC4)N3[C@@H](C#N)[C@H](C2)N1C)OCO5 (some centres unmarked) | 0.013 µM | – | – | – | – |
| CCCC(=O)Oc1c(OC)c(C)cc2c1[C@@H]1C3Cc4c(OC(C)=O)c(C)c5c(c4[C@H](CN(C(=O)CCC)C(=O)[C@H](C)N(C(=O)CCC)C(=O)C(F)(F)F)N3[C@@H](C#N)[C@H](C2)N1C)OCO5 (some centres unmarked) | 0.11 µM | – | – | – | 0.11 µM |
| COc1c(C)cc2c(c1O)[C@@H]1C3Cc4c(OC(C)=O)c(C)c5c(c4[C@H](CNC(=O)[C@H](Cc4ccccc4)NC(=O)OC(C)(C)C)N3[C@@H](C#N)[C@H](C2)N1C)OCO5 (some centres unmarked) | 0.0013 µM | – | – | – | 0.0013 µM |
